Values quoted from earlier work as cited in patent US5831004A, “Inhibitors of metalloproteases, pharmaceutical compositions comprising same and methods of their use” (Affymax Technologies N.V., priority 1995, dated 1998).

Target: T1, human rheumatoid synovial collagenase (Homo sapiens, UniProt P03956)
T1 sequence (P03956 100-469): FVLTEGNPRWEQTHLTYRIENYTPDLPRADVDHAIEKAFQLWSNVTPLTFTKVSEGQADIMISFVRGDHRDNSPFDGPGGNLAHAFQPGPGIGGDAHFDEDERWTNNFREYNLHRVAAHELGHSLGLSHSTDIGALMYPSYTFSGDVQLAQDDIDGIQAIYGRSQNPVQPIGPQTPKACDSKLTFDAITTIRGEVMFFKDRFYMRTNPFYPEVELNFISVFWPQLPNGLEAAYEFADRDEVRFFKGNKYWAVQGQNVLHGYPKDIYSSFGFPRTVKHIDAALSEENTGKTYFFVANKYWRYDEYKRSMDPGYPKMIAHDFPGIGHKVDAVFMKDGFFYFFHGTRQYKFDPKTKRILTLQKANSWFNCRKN
Details: cited from earlier work

## CNC(=O)[C@H](Cc1ccc(OC)cc1)NC(=O)[C@H](CC(C)C)NC(CCNC(=O)OCc1ccccc1)C(=O)O (stereo partly drawn) [N-[3-(benzyloxy-carbonyl)amino-1-carboxy-n-propyl]-L-leucyl-O-methyl-L-tyrosine, N-methylamide]
  IC50: < 8 µM
